Calls of active or inactive are those of the source. No cut-off for these calls is given here.
Columns and labels:
Bcr/Abl fusion protein [1] = target: Bcr/Abl fusion protein (Homo sapiens, UniProt P00519); experiment: Inhibition of wild type Bcr-Abl (unknown origin) incubated for 1 hr in presence of ATP by ADP-Glo kinase assay; format: protein assay
Bcr/Abl fusion protein [2] = target: Bcr/Abl fusion protein (Homo sapiens, UniProt P00519, T315I); experiment: Inhibition of Bcr-Abl T315I mutant (unknown origin) incubated for 1 hr in presence of ATP by ADP-Glo kinase assay; format: protein assay
K562 [3] = experiment: Antiproliferative activity against human K562 cells assessed as inhibition of cell growth incubated for 48 hrs by MTT assay; format: functional, cell-based; conditions: K562, 48 h
BaF3 [4] = experiment: Antiproliferative activity against mouse BaF3 cells expressing Bcr-Abl T315I mutant assessed as inhibition of cell growth at 30 uM incubated for 72 hrs by CellTiter-Glo luminescent assay; format: functional
K562/Adr = experiment: Antiproliferative activity against human Adriamycin-resistant K562/Adr cells assessed as inhibition of cell growth incubated for 48 hrs by MTT assay; format: functional, cell-based
K-562R = experiment: Antiproliferative activity against human K-562R cells expressing Bcr-Abl T315I mutant assessed as inhibition of cell growth incubated for 48 hrs by MTT assay; format: functional, cell-based
HEK293 = experiment: Cytotoxicity against human HEK293 cells assessed as inhibition of cell growth upto 100 uM incubated for 48 hrs by MTT assay; format: toxicity, cell-based; conditions: hek293, 48 h
EA.hy 926 = experiment: Cytotoxicity against human EA.hy 926 cells assessed as inhibition of cell growth upto 100 uM incubated for 48 hrs by MTT assay; format: toxicity, cell-based; conditions: ea.hy 926, 48 h
BaF3 [5] = experiment: Antiproliferative activity against mouse BaF3 cells expressing wild type Bcr-Abl assessed as inhibition of cell growth incubated for 72 hrs by CellTiter-Glo luminescent assay; format: functional, cell-based; conditions: BaF3, 72 h
BaF3 [6] = experiment: Antiproliferative activity against mouse BaF3 cells expressing Bcr-Abl T315I mutant assessed as inhibition of cell growth incubated for 72 hrs by CellTiter-Glo luminescent assay; format: functional, cell-based; conditions: BaF3, 72 h
BaF3 [7] = experiment: Antiproliferative activity against mouse BaF3 cells assessed as inhibition of cell growth incubated for 72 hrs by CellTiter-Glo luminescent assay; format: functional, cell-based; conditions: BaF3, 72 h
K562 [8] = experiment: Induction of apoptosis in human K562 cells assessed as necrotic cells at 1 uM incubated for 48 hrs by Annexin V-FITC/PI staining based flow cytometry analysis (Rvb= 0.29%); format: functional
K562 [9] = experiment: Induction of apoptosis in human K562 cells assessed as necrotic cells at 5 uM incubated for 48 hrs by Annexin V-FITC/PI staining based flow cytometry analysis (Rvb= 0.29%); format: functional
K562 [10] = experiment: Induction of apoptosis in human K562 cells assessed as necrotic cells at 10 uM incubated for 48 hrs by Annexin V-FITC/PI staining based flow cytometry analysis (Rvb= 0.29%); format: functional
K562 [11] = experiment: Induction of apoptosis in human K562 cells assessed as early apoptotic cells at 1 uM incubated for 48 hrs by Annexin V-FITC/PI staining based flow cytometry analysis (Rvb= […]); format: functional
K562 [12] = experiment: Induction of apoptosis in human K562 cells assessed as early apoptotic cells at 5 uM incubated for 48 hrs by Annexin V-FITC/PI staining based flow cytometry analysis (Rvb= […]); format: functional
K562 [13] = experiment: Induction of apoptosis in human K562 cells assessed as early apoptotic cells at 10 uM incubated for 48 hrs by Annexin V-FITC/PI staining based flow cytometry analysis (Rvb= […]); format: functional
K562 [14] = experiment: Induction of apoptosis in human K562 cells assessed as late apoptotic cells at 1 uM incubated for 48 hrs by Annexin V-FITC/PI staining based flow cytometry analysis (Rvb= 2.89%); format: functional
K562 [15] = experiment: Induction of apoptosis in human K562 cells assessed as late apoptotic cells at 5 uM incubated for 48 hrs by Annexin V-FITC/PI staining based flow cytometry analysis (Rvb= 2.89%); format: functional
K562 [16] = experiment: Induction of apoptosis in human K562 cells assessed as late apoptotic cells at 10 uM incubated for 48 hrs by Annexin V-FITC/PI staining based flow cytometry analysis (Rvb= 2.89%); format: functional
K562 [17] = experiment: Induction of apoptosis in human K562 cells assessed as viable cells at 1 uM incubated for 48 hrs by Annexin V-FITC/PI staining based flow cytometry analysis (Rvb= 80.56%); format: functional; conditions: read-out: Activity
K562 [18] = experiment: Induction of apoptosis in human K562 cells assessed as viable cells at 5 uM incubated for 48 hrs by Annexin V-FITC/PI staining based flow cytometry analysis (Rvb= 80.56%); format: functional; conditions: read-out: Activity
K562 [19] = experiment: Induction of apoptosis in human K562 cells assessed as viable cells at 10 uM incubated for 48 hrs by Annexin V-FITC/PI staining based flow cytometry analysis (Rvb= 80.56%); format: functional; conditions: read-out: Activity
K562 [20] = experiment: Induction of cell cycle arrest in human K562 cells assessed as reduction in G0/G1 phase at 1 to 10 uM incubated for 48 hrs by PI staining based flow cytometry; format: functional; conditions: dose 1-10 µM
K562 [21] = experiment: Induction of cell cycle arrest in human K562 cells assessed as accumulation at S phase at 1 to 10 uM incubated for 48 hrs by PI staining based flow cytometry; format: functional; conditions: dose 1-10 µM
[22] = target: T1, Bcr/Abl fusion protein (Homo sapiens) (UniProt P00519+P11274); experiment: Inhibition of Bcr-Abl phosphorylation at Tyr245 residue in human K562 cells expressing wild type Bcr-Abl at 5 to 15 uM measured after 48 hrs by Western blot analysis; format: cell-based; conditions: dose 5-15 µM
[23] = target: T2, Signal transducer and activator of transcription 5A (Homo sapiens) (UniProt P42229); experiment: Inhibition of STAT5 phosphorylation at Tyr694 residue in human K562 cells expressing wild type Bcr-Abl at 0.1 to 15 uM measured after 48 hrs by Western blot analysis; format: cell-based; conditions: dose 0.1-15 µM, DDE = dose-dependent effect
T2 sequence (whole entry): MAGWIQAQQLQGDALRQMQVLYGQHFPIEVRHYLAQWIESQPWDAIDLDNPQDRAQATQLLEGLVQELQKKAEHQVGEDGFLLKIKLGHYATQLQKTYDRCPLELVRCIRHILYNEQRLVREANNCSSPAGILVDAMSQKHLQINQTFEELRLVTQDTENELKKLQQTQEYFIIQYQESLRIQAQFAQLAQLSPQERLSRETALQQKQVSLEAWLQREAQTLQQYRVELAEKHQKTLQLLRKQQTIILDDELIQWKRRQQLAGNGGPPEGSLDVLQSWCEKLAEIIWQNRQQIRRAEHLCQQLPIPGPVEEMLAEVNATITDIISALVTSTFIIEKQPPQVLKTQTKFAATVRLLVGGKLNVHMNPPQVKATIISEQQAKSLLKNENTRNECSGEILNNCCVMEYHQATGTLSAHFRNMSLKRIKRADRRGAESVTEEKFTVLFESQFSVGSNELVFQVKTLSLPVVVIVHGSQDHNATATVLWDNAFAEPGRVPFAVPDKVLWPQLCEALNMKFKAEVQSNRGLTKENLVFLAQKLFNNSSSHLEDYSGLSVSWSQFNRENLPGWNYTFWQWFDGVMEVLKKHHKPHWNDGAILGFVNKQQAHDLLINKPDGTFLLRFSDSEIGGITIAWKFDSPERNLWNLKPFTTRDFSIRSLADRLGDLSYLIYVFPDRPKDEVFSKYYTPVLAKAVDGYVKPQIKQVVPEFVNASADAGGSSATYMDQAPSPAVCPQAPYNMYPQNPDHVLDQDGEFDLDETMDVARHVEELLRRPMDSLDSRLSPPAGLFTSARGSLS

K562 [24] = experiment: Induction of apoptosis in human K562 cells assessed as necrotic cells at 5 uM incubated for 48 hrs by Annexin V-FITC/PI staining based flow cytometry analysis (Rvb= 0.25%); format: functional
K562 [25] = experiment: Induction of apoptosis in human K562 cells assessed as necrotic cells at 10 uM incubated for 48 hrs by Annexin V-FITC/PI staining based flow cytometry analysis (Rvb= 0.25%); format: functional
K562 [26] = experiment: Induction of apoptosis in human K562 cells assessed as necrotic cells at 20 uM incubated for 48 hrs by Annexin V-FITC/PI staining based flow cytometry analysis (Rvb= 0.25%); format: functional
K562 [27] = experiment: Induction of apoptosis in human K562 cells assessed as early apoptotic cells at 5 uM incubated for 48 hrs by Annexin V-FITC/PI staining based flow cytometry analysis (Rvb= 11.35%); format: functional
K562 [28] = experiment: Induction of apoptosis in human K562 cells assessed as early apoptotic cells at 10 uM incubated for 48 hrs by Annexin V-FITC/PI staining based flow cytometry analysis (Rvb= 11.35%); format: functional
K562 [29] = experiment: Induction of apoptosis in human K562 cells assessed as early apoptotic cells at 20 uM incubated for 48 hrs by Annexin V-FITC/PI staining based flow cytometry analysis (Rvb= 11.35%); format: functional
K562 [30] = experiment: Induction of apoptosis in human K562 cells assessed as late apoptotic cells at 5 uM incubated for 48 hrs by Annexin V-FITC/PI staining based flow cytometry analysis (Rvb= 5.35%); format: functional
K562 [31] = experiment: Induction of apoptosis in human K562 cells assessed as late apoptotic cells at 10 uM incubated for 48 hrs by Annexin V-FITC/PI staining based flow cytometry analysis (Rvb= 5.35%); format: functional
K562 [32] = experiment: Induction of apoptosis in human K562 cells assessed as late apoptotic cells at 20 uM incubated for 48 hrs by Annexin V-FITC/PI staining based flow cytometry analysis (Rvb= 5.35%); format: functional
K562 [33] = experiment: Induction of apoptosis in human K562 cells assessed as viable cells at 5 uM incubated for 48 hrs by Annexin V-FITC/PI staining based flow cytometry analysis (Rvb= 83.0.5%); format: functional; conditions: read-out: Activity
K562 [34] = experiment: Induction of apoptosis in human K562 cells assessed as viable cells at 10 uM incubated for 48 hrs by Annexin V-FITC/PI staining based flow cytometry analysis (Rvb= 83.0.5%); format: functional; conditions: read-out: Activity
K562 [35] = experiment: Induction of apoptosis in human K562 cells assessed as viable cells at 20 uM incubated for 48 hrs by Annexin V-FITC/PI staining based flow cytometry analysis (Rvb= 83.0.5%); format: functional; conditions: read-out: Activity
K562 [36] = experiment: Induction of cell cycle arrest in human K562 cells assessed as accumulation at S phase at 5 to 20 uM incubated for 48 hrs by PI staining based flow cytometry (Rvb=49%); format: functional; conditions: dose 5-20 µM
[37] = target: T1, Bcr/Abl fusion protein (Homo sapiens); experiment: Inhibition of Bcr-Abl phosphorylation at Tyr245 residue in human K562 cells expressing wild type Bcr-Abl at 0.1 to 15 uM measured after 48 hrs by Western blot analysis; format: cell-based; conditions: dose 0.1-15 µM, DDE = dose-dependent effect

## CS(=O)(=O)Nc1ccc(-c2cn([C@@H]3CN[C@H](C(=O)Nc4ccc(Cl)c(C(F)(F)F)c4)C3)nn2)cn1
Bcr/Abl fusion protein [1]
  IC50: 0.00049 µM
Bcr/Abl fusion protein [2]
  IC50: 0.111 µM
K562 [3]
  IC50: 5.06 µM
BaF3 [4]
  inhibition at 30 µM: 99.7%
K562/Adr
  IC50: 4.72 µM
K-562R
  IC50: 13.3 µM
HEK293
  Activity: Non-Toxic
EA.hy 926
  Activity: Non-Toxic
BaF3 [5]
  IC50: 6.96 µM
BaF3 [6]
  IC50: 4.13 µM
BaF3 [7]
  IC50: > 20 µM
K562 [8]
  Activity: 0.19%
K562 [9]
  Activity: 0.4%
K562 [10]
  Activity: 0.28%
K562 [11]
  Activity: 18.03%
K562 [12]
  Activity: 17.14%
K562 [13]
  Activity: 23.79%
K562 [14]
  Activity: 2.43%
K562 [15]
  Activity: 3.19%
K562 [16]
  Activity: 4.11%
K562 [17]
  viability at 1 µM: 79.3%
K562 [18]
  viability at 5 µM: 79.3%
K562 [19]
  viability at 10 µM: 71.8%
K562 [20]
  Activity: Active
K562 [21]
  Activity: Active
[22]
  inhibition: Active
[23]
  inhibition: Dde

## O=C(Nc1n[nH]c2cc(-c3cn([C@@H]4CN[C@H](C(=O)Nc5ccc(Cl)c(C(F)(F)F)c5)C4)nn3)ccc12)C1CC1
Bcr/Abl fusion protein [1]
  IC50: 0.0015 µM
Bcr/Abl fusion protein [2]
  IC50: 0.188 µM
K562 [3]
  IC50: 5.2 µM
BaF3 [4]
  inhibition at 30 µM: 85.4%
K562/Adr
  IC50: 9.57 µM
K-562R
  IC50: 40.1 µM
HEK293
  Activity: Non-Toxic
EA.hy 926
  Activity: Non-Toxic
BaF3 [5]
  IC50: 1.42 µM
BaF3 [6]
  IC50: 9.47 µM
BaF3 [7]
  IC50: > 20 µM
K562 [24]
  Activity: 0.22%
K562 [25]
  Activity: 0.19%
K562 [26]
  Activity: 0.23%
K562 [27]
  Activity: 14.34%
K562 [28]
  Activity: 18.48%
K562 [29]
  Activity: 33.16%
K562 [30]
  Activity: 8.75%
K562 [31]
  Activity: 12.74%
K562 [32]
  Activity: 12.2%
K562 [33]
  viability at 5 µM: 76.7%
K562 [34]
  viability at 10 µM: 68.6%
K562 [35]
  viability at 20 µM: 54.4%
K562 [36]
  Activity: 54.15%
[37]
  inhibition: Dde
[23]
  inhibition: Dde

## O=C(NC1CC1)c1cncc(-c2cn([C@@H]3CN[C@H](C(=O)Nc4ccc(Cl)c(C(F)(F)F)c4)C3)nn2)c1
Bcr/Abl fusion protein [1]
  IC50: 0.00194 µM
Bcr/Abl fusion protein [2]
  IC50: 0.0315 µM
K562 [3]
  IC50: 0.82 µM
BaF3 [4]
  inhibition at 30 µM: 24.6%
K562/Adr
  IC50: 175 µM
